Experimental data reported in patent US20220288057A1, “CONJOINT THERAPY FOR TREATING SEIZURE DISORDERS” (XENON PHARMACEUTICALS INC., priority 2021, published 2022).
Where two headings read alike, the source gives them in different places.

Test: Terminal plasma and brain concentrations in AC-MES studies (UHPLC-MS/MS)
Type: in vivo, mouse
Method: Sample Collection and Preparation: Mice were anesthetized by isoflurane inhalation (according to SOP TECH-018) until they reached a surgical plane of anesthesia. Then a syringe (1 mL syringe with a 22 gauge needle) was inserted under the sternum into the heart (according to SOP TECH-031). Approximately 0.5 mL of blood was collected, deposited into a K2EDTA tube, and stored on ice. Animals were then euthanized by cervical dislocation. Brains were removed, placed into a pre-weighed vial, and snap frozen on dry ice. At the end of the sample collection, blood was centrifuged at 4000 rpm for 10 minutes at 4° C., and the plasma pipetted into a labeled tube. All samples were stored in a −80° C. freezer until the time of bioanalysis.
Plasma Samples: Extraction of plasma samples was carried out by protein precipitation using acetonitrile. Diluted plasma samples (50 μL) were mixed with 50 μL of internal standard (IS) solution in 1:1 acetonitrile:water (v:v) followed by addition of 200 μL of acetonitrile. Samples were vortexed for 30 seconds, centrifuged at 13,000 rpm for 20 minutes, decanted into a 96-well plate and further centrifuged at 4000 rpm for 20 minutes. The samples were analyzed by ultra-high performance liquid chromatography electrospray ionization tandem mass spectrometry (UHPLC-ESI-MS/MS) as described in the bioanalysis procedure below.
Brain Samples: Prior to extraction, pre-weighed whole brains were homogenized in 1:1 acetonitrile:water (v:v) (2 mL per mouse brain) using an IKA T18 Ultra-Turrax Homogenizer at the setting of 4 for approximately 1 minute. The homogenate was centrifuged at 13,000 rpm for 20 minutes and 50 μL of the supernatant were treated exactly as described in above for plasma samples.
Bioanalysis Procedures: All samples, including plasma and brain homogenate extracts (including calibration standards and quality control (QC) samples prepared in K2EDTA mouse plasma), were extracted by protein precipitation. To each 50 μL aliquot of sample, 50 μL of IS solution (2500 ng/mL of Lacosamide in water:acetonitrile (1:1)) and 50 μL of 6% (v:v) phosphoric acid in water were added, then 200 μL acetonitrile was added. The samples in 1.7 mL tubes were vortex-mixed then centrifuged for 20 minutes at 13,000 rpm. Fifty microliters of the supernatant was mixed with 150 μL of water:acetonitrile (1:1) in a 96 well plate, which was centrifuged post-mixing for 20 minutes at 4000 rpm. The samples were then ready for UHPLC-MS/MS analysis.
Samples were analyzed for Compound A by a research-grade UHPLC-MS/MS method using the conditions listed below.
Samples were analyzed for Lacosamide by a research-grade UHPLC-MS/MS method using the conditions listed below.
At least three QC samples, one at each concentration, had to show back-calculated values within ±20% of their nominal concentrations for the whole sample batch to be valid.
The Blinding and Randomization, Clinical Observations, AC-MES Assay, Sample Collection and Preparation, Plasma and Brain Samples Analysis, and Bioanalysis Procedures in Example 4 were identical to those used in Example 2.
Sample concentration determination and Data Processing and Analysis in Example 4 was identical to Example 2.

For `NC(=O)O[C@@H](Cn1ncnn1)c1ccccc1Cl` [Cenobamate, reference compound], the concentration at 2 h (CF-1, mouse, in vivo, 3 mg/kg, Study 4D, Cenobamate 3 mg/kg single oral dose, 2 h pre-treatment, CF-1 mice, read-out: Mean Brain) was 8.7 µM, the concentration at 2 h (CF-1, mouse, in vivo, 3 mg/kg, Study 4D, Cenobamate 3 mg/kg single oral dose, 2 h pre-treatment, CF-1 mice, read-out: Mean Plasma) was 29.6 µM and the concentration at 2 h (CF-1, mouse, in vivo, 3 mg/kg, Study 4E, Cenobamate 3 mg/kg single oral dose, 2 h pre-treatment, CF-1 mice, read-out: Mean Brain) was 12.2 µM. For the same compound, the concentration at 2 h (CF-1, mouse, in vivo, 3 mg/kg, Study 4E, Cenobamate 3 mg/kg single oral dose, 2 h pre-treatment, CF-1 mice, read-out: Mean Plasma) was 27.7 µM, the concentration at 2 h (CF-1, mouse, in vivo, 5 mg/kg, Study 4E, Cenobamate 5 mg/kg single oral dose, 2 h pre-treatment, CF-1 mice, read-out: Mean Brain) was 22.1 µM and the concentration at 2 h (CF-1, mouse, in vivo, 5 mg/kg, Study 4E, Cenobamate 5 mg/kg single oral dose, 2 h pre-treatment, CF-1 mice, read-out: Mean Plasma) was 53.6 µM. It also gave a concentration at 2 h (CF-1, mouse, in vivo, 5 mg/kg, Study 4F, Cenobamate 5 mg/kg PO, 2 h, alone, read-out: mean plasma concentration) of 31.3 µM, a concentration at 2 h (CF-1, mouse, in vivo, 5 mg/kg, Study 4F, Cenobamate 5 mg/kg PO alone, 2 h pre-treatment, CF-1 mice, read-out: Mean Brain) of 12 µM and a concentration at 2 h (CF-1, mouse, in vivo, 5 mg/kg, Study 4F, Cenobamate 5 mg/kg PO alone, 2 h pre-treatment, CF-1 mice, read-out: Mean Plasma) of 31.3 µM. The concentration at 2 h (CF-1, mouse, in vivo, 7.5 mg/kg, Cenobamate 7.5 mg/kg PO, 2 h, alone, read-out: mean plasma concentration) was 78.1 µM, the concentration at 2 h (CF-1, mouse, in vivo, 7.5 mg/kg, Study 4E, Cenobamate 7.5 mg/kg single oral dose, 2 h pre-treatment, CF-1 mice, read-out: Mean Brain) was 34.5 µM and the concentration at 2 h (CF-1, mouse, in vivo, 7.5 mg/kg, Study 4E, Cenobamate 7.5 mg/kg single oral dose, 2 h pre-treatment, CF-1 mice, read-out: Mean Plasma) was 78.1 µM. For the same compound, the concentration at 2 h (CF-1, mouse, in vivo, 10 mg/kg, Cenobamate 10 mg/kg PO, 2 h, alone, read-out: mean plasma concentration) was 87 µM, the concentration at 2 h (CF-1, mouse, in vivo, 10 mg/kg, Study 4D, Cenobamate 10 mg/kg single oral dose, 2 h pre-treatment, CF-1 mice, read-out: Mean Brain) was 26.8 µM and the concentration at 2 h (CF-1, mouse, in vivo, 10 mg/kg, Study 4D, Cenobamate 10 mg/kg single oral dose, 2 h pre-treatment, CF-1 mice, read-out: Mean Plasma) was 87 µM. It also gave a concentration at 2 h (CF-1, mouse, in vivo, Study 4G, analyte Cenobamate, 5 mg/kg + 0.5 mg/kg Compound A, read-out: mean total plasma concentration) of 41.1 µM, a concentration at 2 h (CF-1, mouse, in vivo, Study 4G, analyte Cenobamate, 5 mg/kg + 1 mg/kg Compound A, read-out: mean total plasma concentration) of 39.7 µM and a Kp at 2 h (CF-1, mouse, in vivo, po, 3 mg/kg, Study 4D, Cenobamate 3 mg/kg single oral dose, read-out: B/P Ratio (brain to plasma ratio)) of 0.29. For the same compound, the Kp at 2 h (CF-1, mouse, in vivo, po, 3 mg/kg, Study 4E, Cenobamate 3 mg/kg single oral dose, read-out: B/P Ratio (brain to plasma ratio)) was 0.44, the Kp at 2 h (CF-1, mouse, in vivo, po, 5 mg/kg, Study 4E, Cenobamate 5 mg/kg single oral dose, read-out: B/P Ratio (brain to plasma ratio)) was 0.41 and the Kp at 2 h (CF-1, mouse, in vivo, po, 5 mg/kg, Study 4F, Cenobamate 5 mg/kg PO alone, read-out: B/P Ratio (brain to plasma ratio)) was 0.38. The Kp at 2 h (CF-1, mouse, in vivo, po, 7.5 mg/kg, Study 4E, Cenobamate 7.5 mg/kg single oral dose, read-out: B/P Ratio (brain to plasma ratio)) was 0.44, the Kp at 2 h (CF-1, mouse, in vivo, po, 10 mg/kg, Study 4D, Cenobamate 10 mg/kg single oral dose, read-out: B/P Ratio (brain to plasma ratio)) was 0.31 and the Kp (CF-1, mouse, in vivo, po, 30 mg/kg, Study 4D, Cenobamate 30 mg/kg single oral dose, read-out: B/P Ratio (brain to plasma ratio)) was 0.3. For the same compound, the concentration at 2 h (Study 4D, Cenobamate 30 mg/kg single oral dose, CF-1 mice, read-out: Mean Brain) was 71.3 µM, the concentration at 2 h (Study 4D, Cenobamate 30 mg/kg single oral dose, CF-1 mice, read-out: Mean Plasma) was 237 µM and the “Mean Brain, Cenobamate” value (Study 4F, Cenobamate 5 mg/kg PO (2 h) in combination with Compound A 2 mg/kg PO (0.5 h)) was 14.7 µM. For the same compound, the “Mean Brain, Cenobamate” value (Study 4G, Cenobamate 5 mg/kg PO (2 h) in combination with Compound A 0.5 mg/kg PO (0.5 h)) was 18.1 µM and the “Mean Brain, Cenobamate” value (Study 4G, Cenobamate 5 mg/kg PO (2 h) in combination with Compound A 1 mg/kg PO (0.5 h)) was 17.0 µM.
